# Laboratory results reported in patent US20020028938A1, “Prostaglandin endoperoxide H synthase biosynthesis inhibitors” (priority 1997, published 2002).
# How the values were obtained:
# [1] = molecular target: T1, human amnionic whole cell cyclooxygenase-2 (WISH cells) (Homo sapiens, UniProt P35354); test: IL-1β induced PGE2 production in WISH cells; type: cell-based; conditions: read-out: Wish IC50 (parenthetical value)
# T1 construct: endogenous in cells; host or cells: human amnionic WISH cells, induced with IL-1beta
# T1 sequence (P35354 18-604): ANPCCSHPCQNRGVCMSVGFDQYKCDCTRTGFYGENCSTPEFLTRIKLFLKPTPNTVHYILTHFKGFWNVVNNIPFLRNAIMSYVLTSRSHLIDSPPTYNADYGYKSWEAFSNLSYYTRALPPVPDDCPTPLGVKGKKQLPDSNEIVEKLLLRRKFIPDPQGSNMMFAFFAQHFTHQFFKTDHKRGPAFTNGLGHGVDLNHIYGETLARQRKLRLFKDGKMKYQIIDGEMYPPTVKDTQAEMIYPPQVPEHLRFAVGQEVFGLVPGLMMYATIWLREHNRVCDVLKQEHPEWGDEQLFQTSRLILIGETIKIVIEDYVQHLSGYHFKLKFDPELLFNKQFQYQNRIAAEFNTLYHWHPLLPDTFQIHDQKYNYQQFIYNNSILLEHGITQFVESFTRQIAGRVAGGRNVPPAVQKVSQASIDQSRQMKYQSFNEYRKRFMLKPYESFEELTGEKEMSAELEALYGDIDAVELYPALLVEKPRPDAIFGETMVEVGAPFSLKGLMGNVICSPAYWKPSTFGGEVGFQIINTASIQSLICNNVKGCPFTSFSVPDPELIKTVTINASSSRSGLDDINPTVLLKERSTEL
# Method in brief: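 Confluent (80%) WISH cells were stimulated with 5 ng/ml IL-1β in serum-free Neuman-Tytell medium, with or without test compound in DMSO (0.01% v/v). PGE2 in the culture medium was measured by EIA against standards prepared in the same medium, read by optical density.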
# [2] = molecular target: T2, recombinant human Cox-1 (r-hu Cox1) (Homo sapiens, UniProt P23219); test: Recombinant human PGHS-1 enzyme assay (RHUCX1); type: biochemical; conditions: for inhibition at 100 µM / inhibition at 10 µM: read-out: RHUCX1 % Inh. at Dose; for IC50: read-out: RHUCX1 IC50 (parenthetical value)
# T2 construct: made in house; host or cells: baculovirus/Sf9 insect cells (microsomes)
# T2 sequence (P23219 24-599): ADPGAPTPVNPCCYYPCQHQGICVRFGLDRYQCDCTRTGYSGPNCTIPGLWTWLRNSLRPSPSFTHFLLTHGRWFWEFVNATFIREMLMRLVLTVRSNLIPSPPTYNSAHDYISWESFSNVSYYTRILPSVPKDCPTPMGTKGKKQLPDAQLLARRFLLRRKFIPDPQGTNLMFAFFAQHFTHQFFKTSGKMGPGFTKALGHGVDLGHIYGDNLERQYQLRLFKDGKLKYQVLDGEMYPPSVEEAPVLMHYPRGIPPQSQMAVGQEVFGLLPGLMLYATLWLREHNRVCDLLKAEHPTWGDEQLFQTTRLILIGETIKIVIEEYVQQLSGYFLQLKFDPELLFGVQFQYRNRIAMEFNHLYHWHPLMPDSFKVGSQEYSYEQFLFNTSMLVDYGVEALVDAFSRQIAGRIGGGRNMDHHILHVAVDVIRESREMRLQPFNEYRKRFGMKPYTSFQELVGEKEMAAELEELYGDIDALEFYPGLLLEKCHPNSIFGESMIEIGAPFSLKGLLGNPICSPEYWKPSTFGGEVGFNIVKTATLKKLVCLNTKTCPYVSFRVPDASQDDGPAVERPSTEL
# Method in brief: (§1)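 Recombinant enzyme reaction ran 2.5 minutes at room temperature, then was quenched with HCl and neutralized with NaOH. PGE2 formed with and without drug was quantified by EIA against standards in the same milieu. Percent inhibition versus control mean; IC50 by linear regression.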
# [3] = molecular target: T3, recombinant human Cox-2 (r-hu Cox-2) (Homo sapiens, UniProt P35354); test: Recombinant human PGHS-2 enzyme assay (RHUCX2); type: biochemical; conditions: for IC50: read-out: RHUCX2 IC50 (parenthetical value)
# T3 construct: made in house; host or cells: baculovirus/Sf9 insect cells (microsomes)
# T3 sequence (P35354 18-604): T1 sequence (P35354 18-604)
# Method in brief: as §1
# [4] = molecular target: T4, Cox-1 in Monocyte U937 cells (Homo sapiens, UniProt P23219); test: Monocyte U937 cell Cox-1 assay; type: cell-based
# T4 construct: endogenous in cells; host or cells: U937 monocyte cells (ATCC)
# T4 sequence (P23219 24-599): as above
# Procedure: Human amnionic WISH cells were grown to 80% confluence in 48 well plates. Following removal of the growth medium and two washings with Geys Balanced Salt Solutn, 5 ng IL-1β /ml (UBI, Lake Placid, N.Y.) was added to the cells with or without test compound in DMSO (0.01% v/v) in Neuman-Tytell Serumless Medium (GIBCO, Grand Island, N.Y.). Following an 18 hour incubation to allow for the maximal induction of PGHS-2, the conditioned medium was removed and assayed for PGE2 content by EIA analysis as described above.
# Monocyte U937 (ATCC, Rockville, Md.) cells were grown in a similar fashion to the WISH cells. After incubation, the conditioned medium was removed and assayed for […] by EIA analysis as described above.
# [5] = tested on: prostaglandin biosynthesis in vivo (pleural lavage eicosanoids); test: Rat carrageenan pleural inflammation (CIP) model; conditions: 4 h, 10 mpk oral, read-out: CIP % Inhib. @ 10 mpk
# Procedure: For oral administration, test compounds were suspended on the day of use in 100% polyethyleneglycol (PEG 400) with a motorized homogenizer equipped with a Teflon-coated pestle (TRI-R Instrument, Jamaica, N.Y.).
# To compare the mean responses of the treatment groups, analysis of variance was applied. Percent inhibition values were determined by comparing the individual treatment mean values to the mean of the control group. Linear regression was used to estimate IC50's/ED50's in appropriate assays.
# Pleural inflammation was induced in male adrenalectomized Sprague-Dawley rats following the method of Vinegar et al., Fed. Proc. 1976, 35, 2447-2456. Animals were orally dosed with experimental compounds, 30 minutes prior to the intrapleural injection of 2% lambda carrageenan (Sigma Chemical Co., St. Louis Mo.). Four hours later the animals were euthanized and the pleural cavities lavaged with ice cold saline. The lavage fluid was then added to two volumes of ice cold methanol (final methanol concentration 66%) to lyse cells and precipitate protein. Eicosanoids were determined by EIA as described above.
# [6] = molecular target: T5, Human Whole Platelet Cyclooxygenase-1 (Homo sapiens, UniProt P23219); test: Human Whole Platelet Cyclooxygenase-1 assay (HWPX); type: cell-based; conditions: read-out: HWPX IC50 (parenthetical value)
# T5 construct: from tissue; host or cells: human blood: isolated platelets (A4) or heparinised whole blood (A9)
# T5 sequence (P23219 24-599): as above
# Method in brief: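 Washed platelets from healthy-donor ACD blood were pre-incubated with compound for 10 min, then stimulated with calcium ionophore A23187 (8.8 μM final) for 10 min. Reaction stopped with cold 6 mM EDTA; thromboxane in supernatants quantified with a commercial kit.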
# [7] = tested on: carrageenan induced paw edema; test: Carrageenan induced paw edema (CPE) in rats; type: in vivo; conditions: rat; for inhibition in vivo at 10 mg/kg: 10 mpk oral, 3 hours after carrageenan, read-out: CPE % Inhib. @ 10 mpk
# Method in brief: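 Male Sprague-Dawley rats (170–190 g) dosed orally in PEG 400, 1 h before subplantar 0.1 ml 1% lambda carrageenan in right hindpaw. Plethysmographic paw volume at 0 and 3 h; edema as difference, % inhibition versus control mean (±SEM), Dunnett's test, ED50 by linear regression.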
# [8] = tested on: air pouch prostaglandin biosynthesis (Cox-2); test: Carrageenan induced air pouch prostaglandin biosynthesis model (CAP); type: in vivo, rat; conditions: for inhibition in vivo at 3 mg/kg: 4 h, 3 mpk, rat, read-out: CAP % Inhib. @ 3 mpk; for ED50: Rattus norvegicus
# Method in brief: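 Male Sprague Dawley rats with dorsal air pouches (20 mL air day 0, 10 mL day 3) received 0.2% lambda carrageenan in saline into the pouch on day 7. Compounds dosed at 0.1 to 10 mg/kg 30 min before carrageenan; pouch lavaged 4 h later, prostaglandins measured by EIA. Percent inhibition versus control mean; ED50 by linear regression.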
# [9] = Pharmacokinetic profile (plasma concentration, half life, AUC); type: in vivo, Rat; conditions: for half-life: Rat IV (3mg/kg); for AUC / concentration at 14 day: rat; for concentration at 14 day: oral, based on 10 mg/kg dosage, read-out: 14 day plasma micromolar concentration
# [10] = molecular target: T6, Human whole blood Cox-2 (Homo sapiens, UniProt P35354); test: Human whole blood assay Cyclooxygenase-2; type: cell-based
# T6 construct: from tissue; host or cells: heparinised human whole blood stimulated with E. coli LPS
# T6 sequence (P35354 18-604): T1 sequence (P35354 18-604)
# Procedure: Heparin anticoagulated blood was incubated with drugs dissolved in DMSO. The samples are incubated at 37 degrees Celsius for 15 minutes. E. coli lipopolysaccaride (LPS) 5 μg/ml dded and the samples incubated for 5 hours. The reaction was stopped with the addition of EGTA and cold methanol (50% final concentration). After 18 hours at −70 degree Celsius, the plates were centrifuged and supernatants analyzed for TXB2.
# [11] = molecular target: T7, Human whole blood Cox-1 (Homo sapiens, UniProt P23219); test: Human whole blood assay Cyclooxygenase-1; type: cell-based
# T7 construct: from tissue; host or cells: human blood: isolated platelets (A4) or heparinised whole blood (A9)
# T7 sequence (P23219 24-599): as above
# Procedure: Heparin anticoagulated blood was incubated with drugs dissolved in DMSO. The samples are incubated at 37 degrees Celsius for 4.5 hours after which calcium ionophore at a final concentration of 30 μM was added and the mixture allowed to incubate for 30 minutes. The reaction was stopped with the addition of EGTA and cold methanol (50% final concentration). After 18 hours at −70 degrees Celsius, the plates were centrifuged and supernatants analyzed for TXB2.
IC50 [1] [nM],inhibition at 100 µM [2] [%],melting point [°C],IC50 [6] [nM],IC50 [2] [nM],IC50 [3] [nM],SMILES,inhibition in vivo at 10 mg/kg [5] [%],inhibition in vivo at 10 mg/kg [7] [%],inhibition in vivo at 3 mg/kg [8] [%],ED50 [8] [mg/kg],also measured
1,10,153 to 154,–,–,–,CS(=O)(=O)c1ccc(-c2cnn(Cc3ccc(F)cc3)c(=O)c2-c2ccc(F)cc2)cc1 [Example 20],–,–,–,–,"inhibition at 0.01 µM ([3]; 0.01 μM, read-out: RHUCX2 % Inh. at Dose): 9%; inhibition at 0.1 µM ([3]; 0.1 μM, read-out: RHUCX2 % Inh. at Dose): 86%; inhibition at 1 µM ([4]; U-937, 1 μM, read-out: U937 % Inhib. at Dose): 33%"
–,60,169 to 172,–,–,–,"CC(C)=CCn1ncc(-c2ccc(S(C)(=O)=O)cc2)c(-c2ccc(F)cc2)c1=O [Example 24, 2-(3-Methyl-2-butenyl)-4-(4-fluorophenyl)-5-[4-(methylsulfonyl)phenyl]-3(2H)-pyridazinone]",–,–,–,–,inhibition at 10 µM [2]: 0%; IC50 ([4]; read-out: U937 IC50 (parenthetical value)): 190 nM
1,–,184 to 185,76,178,27,"NS(=O)(=O)c1ccc(-c2cnn(CC=C(Cl)Cl)c(=O)c2-c2ccc(F)cc2)cc1 [Example 119, 2-(3,3-Dichloro-2-2-propenyl)-4-(4-fluorophenyl)-5-[4-(aminosulfonyl)phenyl)-3(2H)-pyridazinone]",82,27,76,–,–
15,2,155 to 157,12600,–,94,"CS(=O)(=O)c1ccc(-c2cnn(-c3ccc(F)c(Cl)c3)c(=O)c2-c2ccc(F)cc2)cc1 [Example 187, 2-(3-Chloro-4-fluorophenyl)-4-(4-fluorophenyl)-5-[4-(methylsulfonyl)phenyl]-3(2H)-pyridazinone]",51,28,30,–,–
30,–,102 to 110,9960,1880,134,CS(=O)(=O)c1ccc(-c2cnn(-c3ccc(Cl)c(F)c3)c(=O)c2-c2ccc(F)cc2)cc1 [Example 190],60,28,71,–,–

# More lines, now with the values behind:
SMILES,IC50 [1] [nM],inhibition at 100 µM [2] [%],melting point [°C],IC50 [6] [nM],IC50 [2] [nM],IC50 [3] [nM],inhibition in vivo at 10 mg/kg [5] [%],inhibition in vivo at 10 mg/kg [7] [%],inhibition in vivo at 3 mg/kg [8] [%],ED50 [8] [mg/kg],also measured
"CC(C)CCOc1c(-c2ccc(S(C)(=O)=O)cc2)cnn(-c2ccc(F)cc2)c1=O [Example 375, 2-(4-Fluorophenyl)-4-(3-methylbutoxy)-5-[4-(methylsulfonyl)phenyl]-3(2H)-pyridazinone]",89,46,117 to 120,2040,–,180,–,47,77.5,0.57,inhibition at 10 µM [2]: 31%; half-life [9]: 2.9 h; AUC [9]: 1.8 µM·h; concentration at 14 day [9]: 0 µM
NS(=O)(=O)c1ccc(-c2cnn(-c3ccc(F)c(F)c3)c(=O)c2-c2ccc(F)cc2)cc1 [Example 400],26,27,177 to 181,300,–,142,65,41,82.5,–,–
"CC(C)(O)CCOc1c(-c2ccc(S(C)(=O)=O)cc2)cnn(-c2ccc(F)cc2)c1=O [Example 451, 2-(4-Fluorophenyl)-4-(3-hydroxy-3-methyl-1-butoxy)-5-[4-(methylsulfonyl)phenyl]-3(2H)-pyridazinone]",150,10,133 to 134,22400,–,470,–,–,80.5,0.7,CPE ED30 ([7]; oral): ED30 = 0.82; IC50 [10]: 470 nM; IC50 [11]: 29100 nM; half-life [9]: 5.2 h; AUC [9]: 69 µM·h; concentration at 14 day [9]: 3.43 µM
"CC(C)(O)CCOc1c(-c2ccc(S(C)(=O)=O)cc2)cnn(-c2ccc(F)c(F)c2)c1=O [Example 471, 2-(3,4-Difluorophenyl)-4-(3-hydroxy-3-methyl-1-butoxy)-5-[4-(methylsulfonyl)phenyl]-3(2H)-pyridazinone]",40,–,131 to 133,320,3680,490,–,41,–,0.9,inhibition at 0.03 µM ([10]; 0.03 micromolar): 85%; inhibition at 30 µM ([11]; 30 micromolar): 55.5%
